From US20140179681A1, “METHODS AND COMPOSITIONS OF TARGETED DRUG DEVELOPMENT” (priority 2010, published 2014)
Where a name gives a salt, the structure may show the parent alone. Read-outs that look alike come from different tables or passages of the source.

Columns and labels:
[1] = tested on: epithelial carcinoma A431 cell line; experiment: MTT Cell Proliferation Assay, A431 cells; format: cell-based; conditions: for MTT Assay IC50(A431/MDBK): ratio in parentheses: ratio MDBK IC50 / A431 IC50 (selectivity)
Procedure, shortened: (§1)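 Each concentration ran in quadruplicate across duplicate plates, with compounds serially diluted in DMSO and delivered at 0.5% DMSO in 0.5% FBS medium for 3 days.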

EGFR = biological target: T1, EGFR (Homo sapiens, UniProt P00533); experiment: EGFR in-cell Western (ICW) screening protocol (EGFR inhibition assay); format: cell-based; design: ICW 1 / ICW 2 / ICW Avg: unit not given here; conditions: for ICW Avg / ICW 1 / ICW 2: ICW assay; for ICW Avg: average of runs 1 and 2; for ICW 1: run 1; for ICW 2: run 2; for ICW assay: Table 10
T1 construct: host or cells: A431
Procedure, shortened: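 In-cell Western read-out: fixed A431 cells were co-stained for total EGFR and phospho-EGFR (Tyr1173; some runs Tyr1045). Before fixation, cells were serum-starved for 2 h, exposed to compound for 4 h, then given EGF for 10 min, usually at 10 ng/ml final (6.6 or 12.5 ng/ml in some runs).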

MDBK line = experiment: MTT Cell Proliferation Assay, MDBK cells; format: cell-based, bovine
Procedure, shortened: as §1

[2] = Homo sapiens, A-431, first value of 'a/b (c)', taken as A431 cells, read-out: MTT Screen, first value of cell
[3] = Bos taurus, MDBK, second value of 'a/b (c)', taken as MDBK cells, read-out: MTT Screen, second value of cell
[4] = A431 cells, first value of cell, read-out: MTT Assay IC50(A431/MDBK): A431
[5] = MDBK cells, second value of cell, read-out: MTT Assay IC50(A431/MDBK): MDBK
[6] = Homo sapiens, A-431, 72 h, Table 10, first of x/y(ratio): A431, three day treatment, unit not printed (doses in μM), read-out: MTT assay (first value)
[7] = % Inhibition of EGF dependent EGFR phosphorylation in A431 cells, compound 125 μM in assay
[8] = Bos taurus, MDBK, 72 h, Table 10, second of x/y(ratio): MDBK, three day treatment, unit not printed (doses in μM), read-out: MTT assay (second value)
[9] = Homo sapiens, A-431, A431 cells, first value of cell, read-out: MTT Assay IC50(A431/MDBK): A431
[10] = Bos taurus, MDBK, MDBK cells, second value of cell, read-out: MTT Assay IC50(A431/MDBK): MDBK

T1 sequence (P00533 25-1210): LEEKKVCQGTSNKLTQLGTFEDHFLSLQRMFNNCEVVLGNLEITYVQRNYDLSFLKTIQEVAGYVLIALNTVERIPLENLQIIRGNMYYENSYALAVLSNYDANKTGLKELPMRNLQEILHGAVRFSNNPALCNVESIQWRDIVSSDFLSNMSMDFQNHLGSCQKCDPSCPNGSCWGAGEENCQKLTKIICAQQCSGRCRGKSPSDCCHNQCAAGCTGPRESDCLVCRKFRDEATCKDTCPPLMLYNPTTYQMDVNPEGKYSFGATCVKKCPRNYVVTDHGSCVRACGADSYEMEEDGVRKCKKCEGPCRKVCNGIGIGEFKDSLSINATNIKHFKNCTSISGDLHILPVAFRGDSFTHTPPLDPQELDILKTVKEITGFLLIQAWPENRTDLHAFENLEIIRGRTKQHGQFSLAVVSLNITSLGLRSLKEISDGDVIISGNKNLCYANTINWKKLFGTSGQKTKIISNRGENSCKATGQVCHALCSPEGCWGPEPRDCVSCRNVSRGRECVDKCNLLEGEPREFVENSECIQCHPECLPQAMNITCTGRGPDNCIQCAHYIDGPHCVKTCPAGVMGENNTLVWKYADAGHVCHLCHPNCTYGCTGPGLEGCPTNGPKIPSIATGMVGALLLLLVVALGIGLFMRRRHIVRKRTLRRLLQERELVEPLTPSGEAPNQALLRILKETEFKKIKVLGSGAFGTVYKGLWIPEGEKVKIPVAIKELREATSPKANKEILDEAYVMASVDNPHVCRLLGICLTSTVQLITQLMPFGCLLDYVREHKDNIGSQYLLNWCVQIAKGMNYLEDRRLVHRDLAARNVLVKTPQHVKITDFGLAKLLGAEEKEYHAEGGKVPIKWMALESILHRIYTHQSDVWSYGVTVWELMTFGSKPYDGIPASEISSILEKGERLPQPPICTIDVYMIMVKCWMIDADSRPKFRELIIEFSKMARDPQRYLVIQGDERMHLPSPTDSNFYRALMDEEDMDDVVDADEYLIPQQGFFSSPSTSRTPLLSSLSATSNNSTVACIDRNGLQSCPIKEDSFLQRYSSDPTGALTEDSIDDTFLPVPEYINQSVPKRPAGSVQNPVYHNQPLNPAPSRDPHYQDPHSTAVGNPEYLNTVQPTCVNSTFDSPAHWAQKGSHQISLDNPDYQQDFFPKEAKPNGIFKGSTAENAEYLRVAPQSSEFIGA

`CCN(c1ccccc1)S(=O)(=O)c1ccc(NC(=S)NC(=O)Cc2ccccc2)cc1` [AD4-11412] was tested, and the IC50 [1, 2] was 11.4 µM, the “ICW Screen (ICW Inhibition)” value (EGFR) was 31.958 and the IC50 (MDBK line; [3]) was 20 µM.
For `CCCCc1c(C)nc(Nc2nc(C)c3ccccc3n2)[nH]c1=O` [12743 + TFA], the IC50 [1, 4] was 6.88 µM, the “MTT Assay IC50(A431/MDBK): ratio in parentheses” value (shortened to “MTT Assay IC50(A431/MDBK): ratio”) [1] was 1.43 and the “ICW Avg” value (EGFR) was 25.65. The “ICW 1” value (EGFR) was 9.17, the “ICW 2” value (EGFR) was 42.12 and the IC50 (MDBK line; [5]) was 9.86 µM.
`O=C(NC(=S)Nc1ccc(S(=O)(=O)N2CCCCCC2)cc1)C1CCC1` [AD4-12104] was tested, and the IC50 [1, 2] was 39 µM, the “ICW Screen (ICW Inhibition)” value (EGFR) was 41.204 and the IC50 (MDBK line; [3]) was 37.6 µM.
With `CCc1nnc(NS(=O)(=O)c2ccc(NC(=S)NC(=O)/C=C/c3cccs3)cc2)s1` [AD4-11880] the IC50 [1, 2] was 47.3 µM, the “ICW Screen (ICW Inhibition)” value (EGFR) was 37.604 and the IC50 (MDBK line; [3]) was 47.3 µM.
Compound `Cc1ccc(NC(=S)Nc2ccc(S(=O)(=O)Nc3cc(Cl)cc(Cl)c3)cc2)cc1` [AD4-12460] has an IC50 [1, 6] of 6.33 µM, an ICW assay (EGFR; [7]) of 42.5115 and an IC50 (MDBK line; [8]) of 5.61 µM.
Compound `COc1ccc(NC(=S)Nc2ccc(S(=O)(=O)Nc3ccccc3C)cc2)cc1OC` [AD4-12527] has an IC50 [1, 6] of 26.9 µM, an ICW assay (EGFR; [7]) of 31.9587 and an IC50 (MDBK line; [8]) of 20 µM.
`CN1CCN(S(=O)(=O)c2ccc(NC(=S)NC(=O)/C=C/c3ccc(F)cc3)cc2)CC1` [AD4-12107] was tested, and the IC50 [1, 2] was 14.1 µM, the “ICW Screen (ICW Inhibition)” value (EGFR) was 41.933 and the “MTT Screen, second value of cell” value (MDBK line; second value of 'a/b (c)', taken as MDBK cells) was “non- conver- gent”.
`O=S(=O)(Nc1ccccc1)c1ccc(NC(=S)Nc2ccc(Cl)cc2Cl)cc1` [AD4-12822] gave an IC50 [1, 6] of 6.92 µM, an ICW assay (EGFR; [7]) of 51.4082 and an IC50 (MDBK line; [8]) of 7.04 µM.
For `Cc1cc(NS(=O)(=O)c2ccc(NC(=S)NC(=O)/C=C/c3ccccc3)cc2)no1` [AD4-11885], the IC50 ([1]; first value of 'a/b (c)', taken as A431 cells, read-out: MTT Screen, first value of cell) was 37.8 µM, the “ICW Screen (ICW Inhibition)” value (EGFR) was 32.38 and the IC50 (MDBK line; second value of 'a/b (c)', taken as MDBK cells, read-out: MTT Screen, second value of cell) was 48.3 µM.
In the case of `CCCc1c(C)nc(Nc2nc(C)c3cc(C)ccc3n2)[nH]c1=O` [compound 12667], the IC50 [1, 9] is reported as 36.1 µM, the “MTT Assay IC50(A431/MDBK): ratio” value [1] is reported as 0.54 and the “ICW Avg” value (EGFR) is reported as 31.86. The “ICW 1” value (EGFR) was 29.45, the “ICW 2” value (EGFR) was 34.27 and the IC50 (MDBK line; [10]) was 19.6 µM.
In the case of `COc1ccc(C)cc1NC(=S)Nc1ccc(S(=O)(=O)Nc2cc(Cl)cc(Cl)c2)cc1` [AD4-12499], the IC50 [1, 6] is reported as 6.99 µM, the ICW assay (EGFR; [7]) is reported as 26.0767 and the IC50 (MDBK line; [8]) is reported as 6.58 µM.
For `Cc1nc(Nc2nc(=O)cc(CSc3ccc(Cl)cc3)[nH]2)nc2ccccc12` [11583 + TFA], the IC50 [1, 4] was 47.3 µM, the “MTT Assay IC50(A431/MDBK): ratio” value [1] was 1.00 and the “ICW Avg” value (EGFR) was 51.10. For the same compound, the “ICW 1” value (EGFR) was 47.93, the “ICW 2” value (EGFR) was 54.26 and the IC50 (MDBK line; [5]) was 47.3 µM.
With `O=c1cc(CN2CCN(C(c3ccccc3)c3ccccc3)CC2)c2ccc(O)c(O)c2o1` [AD4-10633] the IC50 ([1]; Homo sapiens, A-431, Table 11, first of x/y(ratio): A431, unit not printed (doses in μM), read-out: MTT Screen (first value)) was 5.2 µM, the “MTT Follow-up (first value)” value ([1]; Table 11, first of x/y(ratio): A431, unit not given) was “Not Convergent” and the “ICW Screen” value (EGFR; Table 11, % Inhibition of EGF dependent EGFR phosphorylation in A431 cells, compound 125 μM in assay) was 46.398. The “MTT Screen (second value)” value (MDBK line; Table 11, second of x/y(ratio): MDBK, unit not printed (doses in μM)) was “non- convergent”.
`Cc1nc(Nc2nc(C(C)C)cc(=O)[nH]2)nc2c(C)cccc12` [compound 12777] was tested, and the IC50 [1, 9] was 12.8 µM, the “MTT Assay IC50(A431/MDBK): ratio” value [1] was 0.70 and the “ICW Avg” value (EGFR) was 30.77. The “ICW 1” value (EGFR) was 24.37, the “ICW 2” value (EGFR) was 37.17 and the IC50 (MDBK line; [10]) was 8.96 µM.
In the case of `CCOc1ccc2nc(Nc3nc(C)cc(-c4ccccc4)n3)nc(C)c2c1` [12688 + TFA], the IC50 [1, 9] is reported as 5.04 µM, the “MTT Assay IC50(A431/MDBK): ratio” value [1] is reported as 0.71 and the “ICW Avg” value (EGFR) is reported as 36.40. For the same compound, the “ICW 1” value (EGFR) was 45.86, the “ICW 2” value (EGFR) was 26.95 and the IC50 (MDBK line; [10]) was 3.58 µM.
`O=S(=O)(Nc1ccccc1)c1ccc(NC(=S)Nc2ccc(F)c(Cl)c2)cc1` [AD4-12851] was tested, and the IC50 [1, 6] was 6.51 µM, the ICW assay (EGFR; [7]) was 118.637 and the IC50 (MDBK line; [8]) was 5.39 µM.
Work on `O=S(=O)(Nc1ccc(Cl)cc1)c1ccc(NC(=S)Nc2cccc(C(F)(F)F)c2)cc1` [AD4-12423] yielded an IC50 [1, 6] of 6.35 µM, an IC50 ([1]; Table 10, first of x/y(ratio): A431, three day treatment, unit not printed (doses in μM), read-out: MTT assay (first value)) of 4.23 µM and an ICW assay (EGFR; [7]) of 129.155. It also gave an IC50 (MDBK line; [8]) of 5.77 µM and an IC50 (MDBK line; Table 10, second of x/y(ratio): MDBK, three day treatment, unit not printed (doses in μM), read-out: MTT assay (second value)) of 2.92 µM.
With `COc1cc(NS(=O)(=O)c2ccc(NC(=S)NC(=O)/C=C/c3ccco3)cc2)ncn1` [AD4-11870] the IC50 [1, 2] was 55.1 µM, the “ICW Screen (ICW Inhibition)” value (EGFR) was 30.849 and the IC50 (MDBK line; [3]) was 47.3 µM.
